Test results from the supplement of paper PMC10307832.

Legend:
Assay in all cases: relative viability (nuclei count vs DMSO), 5 days (fraction); higher = more cells survive
[1] = compound: C[C@@H](Oc1cc(-c2cnn(C3CCNCC3)c2)cnc1N)c1c(Cl)ccc(F)c1Cl [Crizotinib] + CC(=O)Nc1cccc(-n2c(=O)n(C3CC3)c(=O)c3c(Nc4ccc(I)cc4F)n(C)c(=O)c(C)c32)c1 [Trametinib] (partner 0.02 µM)
Method in brief: (§1)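 Relative viability equals treated-well nuclei counts divided by vehicle-well nuclei counts. Counts came from 4× images of lung cancer cell lines grown in 1536-well plates for 5 days after pin-tool dosing on the day after seeding. Dosing used one drug alone or a fixed anchor-drug dose plus five library-drug doses (not always all listed) in √10 steps, and values are medians of duplicate plates.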

[2] = compound: C[C@@H](Oc1cc(-c2cnn(C3CCNCC3)c2)cnc1N)c1c(Cl)ccc(F)c1Cl [Crizotinib] + Cc1nc(Nc2ncc(C(=O)Nc3c(C)cccc3Cl)s2)cc(N2CCN(CCO)CC2)n1 [Dasatinib] (partner 0.075 µM)
Method in brief: as §1

[3] = compound: O=C(c1cc(Cc2n[nH]c(=O)c3ccccc23)ccc1F)N1CCN(C(=O)C2CC2)CC1 [Olaparib] + CC1(C)CCC(c2ccc(Cl)cc2)=C(CN2CCN(c3ccc(C(=O)NS(=O)(=O)c4ccc(N[C@H](CCN5CCOCC5)CSc5ccccc5)c(S(=O)(=O)C(F)(F)F)c4)cc3)CC2)C1 [Navitoclax] (partner 0.5 µM)
Method in brief: as §1

[4] = compound: C[C@@H](Oc1cc(-c2cnn(C3CCNCC3)c2)cnc1N)c1c(Cl)ccc(F)c1Cl [Crizotinib] + Cc1nc(NC(=O)N2CCC[C@H]2C(N)=O)sc1-c1ccnc(C(C)(C)C(F)(F)F)c1 [Alpelisib] (partner 2 µM)
Method in brief: as §1

[5] = compound: CC(C)C[C@H](NC(=O)[C@H](CCc1ccccc1)NC(=O)CN1CCOCC1)C(=O)N[C@@H](Cc1ccccc1)C(=O)N[C@@H](CC(C)C)C(=O)[C@@]1(C)CO1 [Carfilzomib] + Nc1ncn([C@H]2C[C@H](O)[C@@H](CO)O2)c(=O)n1 [Decitabine] (partner 2 µM)
Method in brief: as §1

Which results are given for NCI-H1793?
relative viability ([1]; first compound 0.03162 µM): 0.467; relative viability ([1]; first compound 0.1 µM): 0.399; relative viability ([1]; first compound 1 µM): 0.461; relative viability ([2]; first compound 0.03162 µM): 0.401; relative viability ([2]; first compound 0.1 µM): 0.382; relative viability ([2]; first compound 1 µM): 0.369; relative viability ([3]; first compound 0.08 µM): 0.406; relative viability ([3]; first compound 0.253 µM): 0.421; relative viability ([3]; first compound 2.53 µM): 0.416; relative viability ([3]; first compound 8 µM): 0.385; relative viability ([4]; first compound 0.01 µM): 0.703; relative viability ([4]; first compound 0.03162 µM): 0.789; relative viability ([4]; first compound 0.1 µM): 0.729; relative viability ([4]; first compound 1 µM): 0.872; relative viability ([5]; first compound 0.001 µM): 0.494; relative viability ([5]; first compound 0.003162 µM): 0.61; relative viability ([5]; first compound 0.01 µM): 0.531; relative viability ([5]; first compound 0.03162 µM): 0.562; relative viability ([5]; first compound 0.1 µM): 0.194
